From patent publication US20120309717A1, “COMPOUNDS, METHODS AND PHARMACEUTICAL COMPOSITIONS FOR INHIBITING PARP” (EISAI INC., priority 2003, published 2012)

Key:
[1] = system: regional heart ischemia reperfusion; test: regional heart ischemia reperfusion model (LAD occlusion); assay type: in vivo, rat; settings: iv bolus pre-ischemia plus iv bolus post-ischemia, 10 to 40 mg/kg; 30 min LAD occlusion, 2 hr reperfusion; male SD rats
Experimental: In the present study, we investigated the effects of 43 in the regional heart ischemia reperfusion model. In regional heart ischemia model, sodium thiopental-anaesthetized male SD rats were subjected to occlusion of LAD coronary artery for 30 min followed by 2 hr of reperfusion. The infarct size was quantified by TTC staining method and expressed as percent of area at risk.
The left anterior descending coronary artery of Sprague-Dawley rats was occluded for 30 minutes. This was followed by 90-120 minutes of blood reflow. PARP inhibitor compounds were given intraperitoneally (ip), 60 minutes pre-, or intravenously (iv), 15 or 5 minutes pre- and 25 minutes post-onset of ischemia. Infarct size was determined by TTC staining and the risk area was determined via blue dye injection.

B16 melanoma [2] = test: B16 melanoma growing subcutaneously in B6D2F1 mice; assay type: in vivo, mouse; settings: 3 days
Experimental: 43 was administered 15 min before TMZ administration. Control mice were always injected with drug vehicles.
The efficacy of TMZ±43 treatment was also evaluated on melanoma growing subcutaneously (sc). For this purpose B16 cells (2.5×10^5) were inoculated sc in the flank of the animal. Tumors were measured with calipers and volume calculated according to the formula: [(width)^2×length]/2. Treatment was started 6 days after challenge, when the volume of tumor nodules reached 100-150 mm^3. Melanoma growth was monitored, by measuring tumor nodules every 3 days for 3 weeks.

[3] = system: murine melanoma cell line B16; test: colony-formation assay, B16; assay type: cell-based
Experimental: (§1) The murine melanoma cell line B16 of C57BL/6J (H-2^b/H-2^b) origin and the lymphoma cell line L5178Y of DBA/2 (H-2^d/H-2^d) origin (ATCC, Manassas, Va.) were cultured in RPMI-1640 containing 10% fetal calf serum (Invitrogen, Milan, Italy), 2 mM L-glutamine, 100 units/ml penicillin and 100 μg/ml streptomycin (Flow Laboratories, Mc Lean, Va.), at 37° C. in a 5% CO2 humidified atmosphere. The human glioblastoma multiforme cell line SJGBM2 was cultured in DMEM (Invitrogen) supplemented with 10% fetal calf serum, 2 mM L-glutamine and antibiotics. SJGBM2 cell line was a kind gift from Dr. Peter J. Houghton (St. Jude Children's Research Hospital, Memphis, Tenn., USA).
(§2) […] For the experiments aimed at assessing the enhancing effect of 43 on TMZ-induced tumor growth inhibition, the methylating agent was added to cell cultures 15 min after 43 was used at concentrations non-toxic, and capable of abrogating PARP activity.
(§3) Long-term survival was analyzed by colony-formation assay. Exponentially growing melanoma and glioblastoma cells were seeded into 6-well plates at a density of 2×10^2/well and left to attach for 18 h; cells were then treated with the compounds under study and cultured to allow colony formation. After 10 days, colonies (defined as a cluster of >50 cells) were fixed and stained with rhodamine B basic violet 10 (ICN Biomedicals Inc., Aurora, Ohio, USA). Untreated or treated lymphoma cells were seeded at 1 cell/well in 96-well plates (flat-bottomed) and cultured. After 10 days, colonies were counted to determine cloning efficiency, using an optical microscope (Tentori 2001b).
(§4) Cell line chemosensitivity to TMZ, 43 or to the drug combination was evaluated in terms of IC50, i.e. the concentration of the drug expressed in μM, capable of inhibiting colony-forming ability by 50%. The IC50 was calculated on the regression line in which the number of colonies was plotted vs the drug concentration.

B16 melanoma [4] = test: B16 melanoma growing at the CNS site (intracranial); assay type: in vivo, mouse
Experimental: (§5) The intracranial transplantation procedure was performed as previously described (Tentori 2002b). Cells (10^4 in 0.03 ml of RPMI-1640) were injected intra-cranially (ic) through the center-middle area of the frontal bone to a 2 mm depth, using a 0.1 ml glass microsyringe and a 27-gauge disposable needle.
(§6) Murine melanoma B16 or lymphoma L5178Y cells (10^4) were injected ic into male B6D2F1 (C57BL/6×DBA/2) mice. Human glioblastoma multiforme SJGBM2 cells (10^6) were injected ic into male athymic BALB/c mice (nu/nu genotype). Before tumor challenge, animals were anesthetized with ketamine (100 mg/kg) and xylazine (5 mg/kg) in 0.9% NaCl solution (10 ml/kg/ip).
(§7) Mice were monitored for mortality for 90 days. Median survival times (MST) were determined and the percentage of increase in lifespan (ILS) was calculated as: {[MST (days) of treated mice/MST (days) of control mice]−1}×100. Efficacy of treatments was evaluated by comparing survival curves between treated and control groups.
(§8) To assess the ability of different treatments to reduce tumor growth, histological examination of the brains was performed using additional animals that were not considered for the analysis of survival. Mice were sacrificed at different time points after tumor challenge, selected within the MST range of untreated tumor-bearing animals.

[5] = crossing of the blood-brain barrier; assay type: in vivo; settings: systemic administration
[6] = system: lymphoma cell line L5178Y; test: colony-formation assay, L5178Y; assay type: cell-based, murine
Experimental: as §1, §2, §3, §4

[7] = system: human glioblastoma multiforme cell line SJGBM2; test: colony-formation assay, SJGBM2; assay type: cell-based
Experimental: as §1
Cells were treated with 43 (0.1-20 μM) or with TMZ (1-250 μM). For the experiments aimed at assessing the enhancing effect of 43 on TMZ-induced tumor growth inhibition, the methylating agent was added to cell cultures 15 min after 43 was used at concentrations non-toxic, and capable of abrogating PARP activity.
as §3, §4

[8] = drug toxicity / maximal tolerated dose in intact mice; settings: TMZ ip + 43 iv, for 3 days
Experimental: Drug toxicity was evaluated by treating intact mice (5/group) with the compounds under study, used as single agents or in combination. Control groups were treated with vehicles only. Body weight was measured three times weekly and survivals were recorded for 3 weeks after the last treatment. Toxicity was assessed on the basis of apparent drug-related deaths and net body weight loss [i.e., (initial weight−lowest weight/initial weight)×100%]. Death was considered drug-related when occurring within 7 days after the last treatment.
43 was dissolved in 70 mM PBS without potassium, and injected intravenously (iv) at different doses (40-200 mg/kg) to establish the maximal tolerated dose.
TMZ was dissolved in dimethyl-sulfoxide (40 mg/ml), diluted in saline (5 mg/ml) and administered ip at doses commonly used for in vivo preclinical studies (Friedman 1995; Middleton 2000; Kokkinakis 2001). Experiments were performed using different doses and schedules of TMZ+43 to determine the maximal tolerated dose of the drug combination. 43 was administered 15 min before TMZ administration. Control mice were always injected with drug vehicles.

[9] = system: SJGBM2 human glioblastoma multiforme; test: orthotopic human glioblastoma multiforme xenograft in nude mice; assay type: in vivo, mouse; settings: with respect to controls or single agents
Experimental: as §5, §6, §7, §8

| SMILES | cardiac protection (infarct size) [1] | tumor growth, 43 only (B16 melanoma [2]; 43 40 mg/kg/day iv, single agent) | enhancement of the antitumor effects of TMZ (B16 melanoma [2]; TMZ 100 mg/kg/day ip + 43 40 mg/kg/day iv, P <0.0001) | intrinsic growth inhibition as single agent ([3]; 1-25 μM 43, B16) | maximal enhancement of TMZ-induced growth inhibition ([3]; B16, 0.6 μM 43) [fold] | susceptibility to antiproliferative effect with respect to SJGBM2 and L5178Y ([3]; B16, 43 as single agent) | inhibition at 1.2 µM ([3]; Mus musculus, B16, 43 at 1.2 μM, read-out: growth inhibition with respect to control) [%] | tumor infiltration in the brain (histology) (B16 melanoma [4]) | blood-brain barrier crossing [5] | intrinsic growth inhibition as single agent ([6]; 1-25 μM 43, L5178Y) | maximal increase of TMZ growth inhibitory effect ([6]; L5178Y, 1.2 μM 43) [fold] | intrinsic growth inhibitory effect ([6]; L5178Y, 2.5 μM 43) | intrinsic growth inhibition as single agent ([7]; 1-25 μM 43, SJGBM2) | maximal increase of TMZ growth inhibitory effect ([7]; SJGBM2, 1.2 μM 43) [fold] | intrinsic growth inhibitory effect ([7]; SJGBM2, 2.5 μM 43) | highest tolerable dose of the drug combination [8] [mg/kg/day] | survival of tumor bearing mice [9] |
| --- | --- | --- | --- | --- | --- | --- | --- | --- | --- | --- | --- | --- | --- | --- | --- | --- | --- |
| CN1CCN(Cc2ccc3c(c2)-c2n[nH]c(=O)c4cccc(c24)O3)CC1 [Compound 43, 10-(4-Methyl-piperazin-1-ylmethyl)-2H-7-oxa-1,2-diaza-benzo[de]anthracen-3-one] | significant cardiac protection | did not affect tumor growth | significantly enhanced | some intrinsic growth inhibition | 10 | more susceptible | 18 ± 3 | pronounced and diffuse tumor infiltration | capable of crossing the blood-brain barrier | some intrinsic growth inhibition | ~10 | intrinsic growth inhibitory effect | some intrinsic growth inhibition | ~4 | intrinsic growth inhibitory effect | – | – |
| Cn1nnc2c(C(N)=O)ncn2c1=O [TMZ, temozolimide] | – | – | – | – | – | – | – | limited but multifocal infiltration | – | – | – | – | – | – | – | 100 | completely ineffective |
